Where two headings read alike, the source gives them in different places.
Columns and labels:
[1] = tested on: rat striatal synaptosomes; type: cell-based
[2] = tested on: rat striatal synaptosomes; details: cited from earlier work
[3] = tested on: rat hippocampal synaptosomes; details: read-out: EC50 for release of hippocampal norepinephrine; cited from earlier work

Row | Structure (SMILES) | Block of nicotine-stimulated [3H]-dopamine release [1] | EC50 ([2]; read-out: EC50 for increase of [3H]-dopamine release) [µM] | EC50 ([2]; read-out: EC50 for release of striatal dopamine) [µM] | EC50 [3] [µM]
1 | CNC1(C)C2CCC(C2)C1(C)C (stereo not shown) [mecamylamine] | fully blocked |  |  | 
2 | CN1CCCC1c1cccnc1 (stereo not shown) [nicotine] |  | 0.16 | 0.16 | 6.5
